Legend:
HCoV-229E 3CLpro = HCoV-229E 3CLpro (Human coronavirus 229E, UniProt P0C6X1); assay: HCoV-229E 3CLpro inhibition assay (FRET); assay type: biochemical
SARS-CoV 3CLpro = SARS-CoV 3CLpro (Severe acute respiratory syndrome coronavirus, UniProt P0C6X7); assay: biochemical
MERS-CoV 3CLpro = MERS-CoV 3CLpro (Middle East respiratory syndrome-related coronavirus, UniProt K9N7C7); assay: biochemical
SARS-CoV-2 3CLpro = SARS-CoV-2 3CLpro (Severe acute respiratory syndrome coronavirus 2, UniProt P0DTD1); assay: biochemical

Chain of MERS-CoV 3CLpro (K9N7C7 3248-3553): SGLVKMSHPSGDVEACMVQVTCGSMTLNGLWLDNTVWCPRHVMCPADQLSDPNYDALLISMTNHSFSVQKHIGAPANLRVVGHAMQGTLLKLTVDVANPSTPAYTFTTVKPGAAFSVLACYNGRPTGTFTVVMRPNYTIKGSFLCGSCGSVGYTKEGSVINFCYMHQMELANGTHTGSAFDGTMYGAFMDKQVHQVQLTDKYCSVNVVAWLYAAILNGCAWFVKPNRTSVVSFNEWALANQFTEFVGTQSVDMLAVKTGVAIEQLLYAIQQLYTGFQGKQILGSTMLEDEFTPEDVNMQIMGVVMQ
Chain of HCoV-229E 3CLpro (P0C6X1 2966-3267): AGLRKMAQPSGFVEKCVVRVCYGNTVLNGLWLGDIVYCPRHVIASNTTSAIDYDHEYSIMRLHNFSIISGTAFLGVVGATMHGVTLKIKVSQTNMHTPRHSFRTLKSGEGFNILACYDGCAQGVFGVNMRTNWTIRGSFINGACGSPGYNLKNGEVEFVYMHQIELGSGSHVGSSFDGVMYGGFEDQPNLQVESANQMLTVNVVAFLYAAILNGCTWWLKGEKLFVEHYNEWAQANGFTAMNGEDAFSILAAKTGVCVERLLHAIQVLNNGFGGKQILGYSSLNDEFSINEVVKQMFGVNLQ

CCC(CC)[C@H](NC(=O)C(F)F)C(=O)N1C[C@@H]2CCC[C@@H]2[C@H]1C(=O)NN(C[C@@H]1CCCNC1=O)C(=O)[C@H](F)Cl [Example 174, N-[(1S)-1-[(3S,3aS,6aR)-3-[[[(2R)-2-chloro-2-fluoro-acetyl]-[[(3S)-2-oxo-3-piperidyl]methyl]amino]carbamoyl]-3,3a,4,5,6,6a-hexahydro-1H-cyclopenta[c]pyrrole-2-carbonyl]-2-ethyl-butyl]-2,2-difluoro-acetamide]
IC50 (HCoV-229E 3CLpro): 29 nM
IC50 (SARS-CoV 3CLpro): 12 nM
IC50 (MERS-CoV 3CLpro): 123 nM
IC50 (SARS-CoV-2 3CLpro): 10 nM

CC[C@@H](C)[C@H](NC(=O)[C@@H](C)F)C(=O)N1C[C@H]2[C@@H]([C@H]1C(=O)NN(C[C@@H]1CCNC1=O)C(=O)[C@@H](F)Cl)C2(C)C [Example 123, (2R)—N-[(1S,2R)-1-[(1R,2S,5S)-2-[[[(2S)-2-chloro-2-fluoro-acetyl]-[[(3S)-2-oxopyrrolidin-3-yl]methyl]amino]carbamoyl]-6,6-dimethyl-3-azabicyclo[3.1.0]hexane-3-carbonyl]-2-methyl-butyl]-2-fluoro-propanamide]
IC50 (HCoV-229E 3CLpro): 51 nM
IC50 (SARS-CoV 3CLpro): 62 nM
IC50 (MERS-CoV 3CLpro): 146 nM
IC50 (SARS-CoV-2 3CLpro): 37 nM

CC[C@H](C)[C@H](NC(=O)[C@@H](F)Cl)C(=O)N1C[C@H]2[C@@H]([C@H]1C(=O)NN(C[C@@H]1CCCNC1=O)C(=O)[C@@H](F)Cl)C2(C)C [Example 189, (2S)-2-chloro-N-[(1S,2S)-1-[(1R,2S,5S)-2-[[[(2S)-2-chloro-2-fluoro-acetyl]-[[(3S)-2-oxo-3-piperidyl]methyl]amino]carbamoyl]-6,6-dimethyl-3-azabicyclo[3.1.0]hexane-3-carbonyl]-2-methyl-butyl]-2-fluoro-acetamide]
IC50 (HCoV-229E 3CLpro): 24 nM
IC50 (SARS-CoV 3CLpro): 10 nM
IC50 (MERS-CoV 3CLpro): 50 nM
IC50 (SARS-CoV-2 3CLpro): 8 nM

CC(C)(C)[C@H](NC(=O)C(F)(F)F)C(=O)N1C[C@H]2[C@@H]([C@H]1C(=O)NN(C[C@@H]1CCNC1=O)C(=O)[C@@H](F)Cl)C2(C)C [Example 19, N-[(1S)-1-[(1R,2S,5S)-2-[[[(2S)-2-chloro-2-fluoro-acetyl]-[[(3S)-2-oxopyrrolidin-3-yl]methyl]amino]carbamoyl]-6,6-dimethyl-3-azabicyclo[3.1.0]hexane-3-carbonyl]-2,2-dimethyl-propyl]-2,2,2-trifluoro-acetamide]
IC50 (HCoV-229E 3CLpro): 27 nM
IC50 (SARS-CoV 3CLpro): 15 nM
IC50 (MERS-CoV 3CLpro): 92 nM
IC50 (SARS-CoV-2 3CLpro): 13 nM

CCC(=O)N[C@H](C(=O)N1C[C@@H]2CCC[C@@H]2[C@H]1C(=O)NN(C[C@@H]1CCNC1=O)C(=O)[C@H](F)Cl)[C@@H](C)CC [Example 38, N-[(1S,2S)-1-[(3S,3aS,6aR)-3-[[[(2R)-2-chloro-2-fluoro-acetyl]-[[(3S)-2-oxopyrrolidin-3-yl]methyl]amino]carbamoyl]-3,3a,4,5,6,6a-hexahydro-1H-cyclopenta[c]pyrrole-2-carbonyl]-2-methyl-butyl]propanamide]
IC50 (HCoV-229E 3CLpro): 29 nM
IC50 (SARS-CoV 3CLpro): 10 nM
IC50 (MERS-CoV 3CLpro): 72 nM
IC50 (SARS-CoV-2 3CLpro): 8 nM

C[C@@H]1C[C@@H](C(=O)NN(C[C@@H]2CCNC2=O)C(=O)[C@H](F)Cl)N(C(=O)[C@@H](NC(=O)C(F)(F)F)C(C)(C)C)C1 [Example 7, N-[(1S)-1-[(2S,4R)-2-[[[(2R)-2-chloro-2-fluoro-acetyl]-[[(3S)-2-oxopyrrolidin-3-yl]methyl]amino]carbamoyl]-4-methyl-pyrrolidine-1-carbonyl]-2,2-dimethyl-propyl]-2,2,2-trifluoro-acetamide]
IC50 (HCoV-229E 3CLpro): 193 nM
IC50 (SARS-CoV 3CLpro): 17 nM
IC50 (MERS-CoV 3CLpro): 379 nM
IC50 (SARS-CoV-2 3CLpro): 8 nM

CC(C)(F)C(=O)N[C@H](C(=O)N1C[C@@H]2CCC[C@@H]2[C@H]1C(=O)NN(C[C@@H]1CCNC1=O)C(=O)[C@H](F)Cl)C(C)(C)C [Example 35, N-[(1S)-1-[(3S,3aS,6aR)-3-[[[(2R)-2-chloro-2-fluoro-acetyl]-[[(3S)-2-oxopyrrolidin-3-yl]methyl]amino]carbamoyl]-3,3a,4,5,6,6a-hexahydro-1H-cyclopenta[c]pyrrole-2-carbonyl]-2,2-dimethyl-propyl]-2-fluoro-2-methyl-propanamide]
IC50 (HCoV-229E 3CLpro): 23 nM
IC50 (SARS-CoV 3CLpro): 8 nM
IC50 (MERS-CoV 3CLpro): 60 nM
IC50 (SARS-CoV-2 3CLpro): 8 nM

CC(C)(C)[C@H](NC(=O)C(F)F)C(=O)N1C[C@@H]2CCC[C@@H]2[C@H]1C(=O)NN(C[C@@H]1CCNC1=O)C(=O)[C@H](F)Cl [Example 28, N-[(1S)-1-[(3S,3aS,6aR)-3-[[[(2R)-2-chloro-2-fluoro-acetyl]-[[(3S)-2-oxopyrrolidin-3-yl]methyl]amino]carbamoyl]-3,3a,4,5,6,6a-hexahydro-1H-cyclopenta[c]pyrrole-2-carbonyl]-2,2-dimethyl-propyl]-2,2-difluoro-acetamide]
IC50 (HCoV-229E 3CLpro): 396 nM
IC50 (SARS-CoV 3CLpro): 38 nM
IC50 (MERS-CoV 3CLpro): 1020 nM
IC50 (SARS-CoV-2 3CLpro): 8 nM

CC[C@H](C)[C@H](NC(=O)[C@H](F)Cl)C(=O)N1C[C@@H]2CCC[C@@H]2[C@H]1C(=O)NN(C[C@H]1CCCNC1=O)C(=O)[C@H](F)Cl [Example 192, (2R)—N-[(1S,2S)-1-[(3S,3aS,6aR)-3-[[[(2R)-2-chloro-2-fluoro-acetyl]-[[(3R)-2-oxo-3-piperidyl]methyl]amino]carbamoyl]-3,3a,4,5,6,6a-hexahydro-1H-cyclopenta[c]pyrrole-2-carbonyl]-2-methyl-butyl]-2-chloro-2-fluoro-acetamide]
IC50 (HCoV-229E 3CLpro): 52 nM
IC50 (SARS-CoV 3CLpro): 17 nM
IC50 (MERS-CoV 3CLpro): 148 nM
IC50 (SARS-CoV-2 3CLpro): 10 nM

O=C1NCC[C@H]1CN(NC(=O)[C@@H]1[C@H]2CCC[C@H]2CN1C(=O)[C@@H](NC(=O)C(F)(F)F)C1CCC1)C(=O)[C@H](F)Cl [Example 74, N-[(1S)-2-[(3S,3aS,6aR)-3-[[[(2R)-2-chloro-2-fluoro-acetyl]-[[(3S)-2-oxopyrrolidin-3-yl]methyl]amino]carbamoyl]-3,3a,4,5,6,6a-hexahydro-1H-cyclopenta[c]pyrrol-2-yl]-1-cyclobutyl-2-oxo-ethyl]-2,2,2-trifluoro-acetamide]
IC50 (HCoV-229E 3CLpro): 117 nM
IC50 (SARS-CoV 3CLpro): 45 nM
IC50 (MERS-CoV 3CLpro): 358 nM
IC50 (SARS-CoV-2 3CLpro): 7 nM

CC[C@H](C)[C@H](NC(=O)C(C)(C)C)C(=O)N1C[C@H]2[C@@H]([C@H]1C(=O)NN(C[C@@H]1CCNC1=O)C(=O)[C@H](F)Cl)C2(C)C [Example 52, N-[(1S,2S)-1-[(1R,2S,5S)-2-[[[(2R)-2-chloro-2-fluoro-acetyl]-[[(3S)-2-oxopyrrolidin-3-yl]methyl]amino]carbamoyl]-6,6-dimethyl-3-azabicyclo[3.1.0]hexane-3-carbonyl]-2-methyl-butyl]-2,2-dimethyl-propanamide]
IC50 (HCoV-229E 3CLpro): 22 nM
IC50 (SARS-CoV 3CLpro): 15 nM
IC50 (MERS-CoV 3CLpro): 57 nM
IC50 (SARS-CoV-2 3CLpro): 10 nM

CC(C)(C)[C@H](NC(=O)[C@@H]1CC1(F)F)C(=O)N1C[C@H]2[C@@H]([C@H]1C(=O)NN(C[C@@H]1CCNC1=O)C(=O)[C@H](F)Cl)C2(C)C [Example 92, (1S)—N-[(1S)-1-[(1R,2S,5S)-2-[[[(2R)-2-chloro-2-fluoro-acetyl]-[[(3S)-2-oxopyrrolidin-3-yl]methyl]amino]carbamoyl]-6,6-dimethyl-3-azabicyclo[3.1.0]hexane-3-carbonyl]-2,2-dimethyl-propyl]-2,2-difluoro-cyclopropanecarboxamide]
IC50 (HCoV-229E 3CLpro): 23 nM
IC50 (SARS-CoV 3CLpro): 18 nM
IC50 (MERS-CoV 3CLpro): 57 nM
IC50 (SARS-CoV-2 3CLpro): 8 nM

CC[C@H](C)[C@H](NC(=O)C1(F)CCC1)C(=O)N1C[C@H]2[C@@H]([C@H]1C(=O)NN(C[C@@H]1CCNC1=O)C(=O)[C@H](F)Cl)C2(C)C [Example 105, N-[(1S,2S)-1-[(1R,2S,5S)-2-[[[(2R)-2-chloro-2-fluoro-acetyl]-[[(3S)-2-oxopyrrolidin-3-yl]methyl]amino]carbamoyl]-6,6-dimethyl-3-azabicyclo[3.1.0]hexane-3-carbonyl]-2-methyl-butyl]-1-fluoro-cyclobutanecarboxamide]
IC50 (HCoV-229E 3CLpro): 27 nM
IC50 (SARS-CoV 3CLpro): 11 nM
IC50 (MERS-CoV 3CLpro): 71 nM
IC50 (SARS-CoV-2 3CLpro): 8 nM

CC(C)(C)[C@H](NC(=O)C1CC(F)(F)C1)C(=O)N1C[C@@H]2CCC[C@@H]2[C@H]1C(=O)NN(C[C@@H]1CCNC1=O)C(=O)[C@H](F)Cl [Example 98, N-[(1S)-1-[(3S,3aS,6aR)-3-[[[(2R)-2-chloro-2-fluoro-acetyl]-[[(3S)-2-oxopyrrolidin-3-yl]methyl]amino]carbamoyl]-3,3a,4,5,6,6a-hexahydro-1H-cyclopenta[c]pyrrole-2-carbonyl]-2,2-dimethyl-propyl]-3,3-difluoro-cyclobutanecarboxamide]
IC50 (HCoV-229E 3CLpro): 22 nM
IC50 (SARS-CoV 3CLpro): 11 nM
IC50 (MERS-CoV 3CLpro): 59 nM
IC50 (SARS-CoV-2 3CLpro): 9 nM

CC[C@@H](C)[C@H](NC(=O)[C@@H](C)F)C(=O)N1C[C@H]2[C@@H]([C@H]1C(=O)NN(C[C@@H]1CCNC1=O)C(=O)[C@H](F)Cl)C2(C)C [Example 116, (2R)—N-[(1S,2R)-1-[(1R,2S,5S)-2-[[[(2R)-2-chloro-2-fluoro-acetyl]-[[(3S)-2-oxopyrrolidin-3-yl]methyl]amino]carbamoyl]-6,6-dimethyl-3-azabicyclo[3.1.0]hexane-3-carbonyl]-2-methyl-butyl]-2-fluoro-propanamide]
IC50 (HCoV-229E 3CLpro): 36 nM
IC50 (SARS-CoV 3CLpro): 18 nM
IC50 (MERS-CoV 3CLpro): 98 nM
IC50 (SARS-CoV-2 3CLpro): 14 nM

CCC(=O)N[C@H](C(=O)N1C[C@@H]2CCC[C@@H]2[C@H]1C(=O)NN(C[C@@H]1CCNC1=O)C(=O)[C@H](F)Cl)C(C)(C)C [Example 32, N-[(1S)-1-[(3S,3aS,6aR)-3-[[[(2R)-2-chloro-2-fluoro-acetyl]-[[(3S)-2-oxopyrrolidin-3-yl]methyl]amino]carbamoyl]-3,3a,4,5,6,6a-hexahydro-1H-cyclopenta[c]pyrrole-2-carbonyl]-2,2-dimethyl-propyl]propanamide]
IC50 (HCoV-229E 3CLpro): 23 nM
IC50 (SARS-CoV 3CLpro): 10 nM
IC50 (MERS-CoV 3CLpro): 80 nM
IC50 (SARS-CoV-2 3CLpro): 7 nM
